Experiments:
[1] = Clinical studies in unresectable or relapsed mesothelioma patients; type: in vivo, human; settings: 400 mg as a continuous oral daily dose; mesothelioma patients not responding to conventional therapy
Description: Clinical trials with the administration of a PDE4 modulator in an amount of from about 1 mg to about 1,000 mg, from about 1 mg to about 500 mg, or from about 1 mg to about 250 mg per day are conducted in patients with asbestosis, malignant mesothelioma, or malignant pleural effusion mesothelioma syndrome. In a specific embodiment, patients receive about 1 mg to about 1000 mg/day of 3-(3,4-dimethoxy-phenyl)-3-(1-oxo-1,3-dihydro-isoindol-2-yl)-propionamide alone or in combination with vinorelbine. Patients who experience clinical benefit are permitted to continue on treatment.
Other clinical studies are performed using 3-(3,4-dimethoxy-phenyl)-3-(1-oxo-1,3-dihydro-isoindol-2-yl)-propionamide in unresectable or relapsed mesothelioma patients that have not responded to conventional therapy. In one embodiment, 3-(3,4-dimethoxy-phenyl)-3-(1-oxo-1,3-dihydro-isoindol-2-yl)-propionamide is administered in an amount of about 1 mg to about 1,000 mg/day to the patients. Treatment with 400 mg as a continuous oral daily dose is well-tolerated.

TNF-α production = assay: In vitro studies: inhibition of TNF-α production following LPS-stimulation of human PBMC and human whole blood; type: cell-based; settings: comparator thalidomide
Description: In a specific embodiment, the pharmacological properties of 3-(3,4-dimethoxy-phenyl)-3-(1-oxo-1,3-dihydro-isoindol-2-yl)-propionamide are characterized in in vitro studies. Studies examine the effects of the compound on the production of various cytokines. Inhibition of TNF-α production following LPS-stimulation of human PBMC and human whole blood by the compound is investigated in vitro. The IC50's of the compound for inhibiting production of TNF-α are measured. […] The pharmacological effects of 3-(3,4-dimethoxy-phenyl)-3-(1-oxo-1,3-dihydro-isoindol-2-yl)-propionamide may derive from its action as an inhibitor of the generation of inflammatory cytokines.

COc1ccc(C(CC(N)=O)N2Cc3ccccc3C2=O)cc1OC (centres unmarked) [3-(3,4-Dimethoxy-phenyl)-3-(1-oxo-1,3-dihydro-isoindol-2-yl)-propionamide]
tolerability [1]: well-tolerated
pharmacological activity profile, potency relative to thalidomide (TNF-α production): five to fifty times more potent than thalidomide

Source: patent US20050142104A1, “Methods of using and compositions comprising PDE4 modulators for the treatment and management of asbestos-related diseases and disorders” (priority 2003, published 2005)
